Assays:
[1] = biological target: human recombinant norepinephrine transporter (Homo sapiens, UniProt P23975); assay: in vitro radioligand binding study, norepinephrine transporter; settings: intact prodrug, up to 10 μM
Text: (§1) Therefore, there is no direct interaction by 1-homoarginine-d-amphetamine dihydrochloride with primary targets critical for the pharmacological effects of d-amphetamine.

rats = assay: motor activity in rats after PO, IV or IN administration; format: in vivo; settings: rat; for increase in activity: IV; for activity levels compared to controls: single IN dose
Description: The pharmacodynamic properties of 1-homoarginine-d-amphetamine dihydrochloride in rats were evaluated and compared to lisdexamfetamine dimesylate and vehicle control after oral (PO), intravenous (IV) and intranasal (IN) administration.
The activity levels of rats after a single IN dose of 1-homoarginine-d-amphetamine dihydrochloride (5.25 mg/kg) was not increased when compared to controls.

α2-adrenergic receptor [2] = assay: confirmatory half maximal inhibitory concentration (IC50) assay; format: binding; settings: after completion of confirmatory IC50 assay
Description: (§2) In a general side-effect profile panel using a wide range of receptors, transporters, ion channels, enzymes and other biological targets that could directly or indirectly influence dopaminergic or noradrenergic neurotransmission in the brain, initial results indicated some 1-homoarginine-d-amphetamine dihydrochloride activity at the α2-adrenergic receptor. However, after completion of a confirmatory half maximal inhibitory concentration (IC50) assay, it was determined that it is unlikely that 1-homoarginine-d-amphetamine dihydrochloride would cause any side-effects related to any of the common enzymes/receptors.

α2-adrenergic receptor [3] = assay: general side-effect profile panel (receptors, transporters, ion channels, enzymes); format: binding
Description: as §2

[4] = biological target: human recombinant dopamine transporter (Homo sapiens, UniProt Q01959); assay: in vitro radioligand binding study, dopamine transporter; settings: intact prodrug, up to 10 μM
human recombinant dopamine transporter, sequence (Q01959 whole entry): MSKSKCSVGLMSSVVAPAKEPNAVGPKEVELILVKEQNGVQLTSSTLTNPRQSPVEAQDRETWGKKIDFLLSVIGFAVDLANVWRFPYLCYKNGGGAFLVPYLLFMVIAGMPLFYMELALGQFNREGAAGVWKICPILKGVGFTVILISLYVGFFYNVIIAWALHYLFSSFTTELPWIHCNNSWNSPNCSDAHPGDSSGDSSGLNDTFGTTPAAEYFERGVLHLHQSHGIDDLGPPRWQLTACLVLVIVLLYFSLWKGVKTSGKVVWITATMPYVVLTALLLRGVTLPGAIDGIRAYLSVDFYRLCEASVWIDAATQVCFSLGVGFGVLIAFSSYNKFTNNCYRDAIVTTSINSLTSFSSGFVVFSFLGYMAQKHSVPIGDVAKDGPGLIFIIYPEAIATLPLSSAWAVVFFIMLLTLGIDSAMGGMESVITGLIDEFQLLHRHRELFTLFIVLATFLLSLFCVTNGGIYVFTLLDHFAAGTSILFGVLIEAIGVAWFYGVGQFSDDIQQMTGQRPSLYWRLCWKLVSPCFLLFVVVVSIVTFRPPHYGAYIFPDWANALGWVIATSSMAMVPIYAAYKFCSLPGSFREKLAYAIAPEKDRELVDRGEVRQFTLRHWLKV
Text: as §1

human recombinant norepinephrine transporter, sequence (P23975 whole entry): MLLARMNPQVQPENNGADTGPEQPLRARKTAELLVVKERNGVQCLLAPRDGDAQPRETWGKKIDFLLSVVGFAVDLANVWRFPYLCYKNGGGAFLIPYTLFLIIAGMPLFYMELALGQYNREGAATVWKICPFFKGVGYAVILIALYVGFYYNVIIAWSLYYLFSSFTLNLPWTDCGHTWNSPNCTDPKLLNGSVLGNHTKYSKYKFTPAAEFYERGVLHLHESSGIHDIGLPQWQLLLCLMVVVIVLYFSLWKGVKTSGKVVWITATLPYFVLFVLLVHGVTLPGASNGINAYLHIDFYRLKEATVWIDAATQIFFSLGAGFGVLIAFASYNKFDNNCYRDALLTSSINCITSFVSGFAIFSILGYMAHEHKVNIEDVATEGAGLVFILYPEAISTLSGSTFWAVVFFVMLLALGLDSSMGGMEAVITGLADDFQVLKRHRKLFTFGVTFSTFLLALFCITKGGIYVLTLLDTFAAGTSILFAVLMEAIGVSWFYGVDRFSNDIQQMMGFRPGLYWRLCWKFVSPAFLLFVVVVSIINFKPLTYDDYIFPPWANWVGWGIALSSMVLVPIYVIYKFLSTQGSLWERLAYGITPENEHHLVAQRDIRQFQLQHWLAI

## C[C@@H](Cc1ccccc1)NC(=O)[C@@H](N)CCCCNC(=N)N.Cl [1-homoarginine-d-amphetamine dihydrochloride]
[1]
  activity at the norepinephrine transporter site: no significant activity
rats; 5.25 mg/kg
  increase in activity: approximately 15%
  activity levels compared to controls: not increased
rats; PO, 4.37 mg/kg
  motor activity compared to the vehicle control group: induced an increase in motor activity
rats; PO, 4.37 mg/kg, initial three hours of the study
  activity levels versus lisdexamfetamine (4.21 mg/kg) comparator group: in general lower
α2-adrenergic receptor [2]
  likelihood of side-effects related to any of the common enzymes/receptors: unlikely
α2-adrenergic receptor [3]
  activity at the α2-adrenergic receptor (initial results): some
[4]
  activity at the dopamine transporter site: no significant activity

## lisdexamfetamine dimesylate [reference compound]
rats; 5.05 mg/kg
  increase in activity: 60%
  activity levels compared to controls: A similar result

Source: patent US20200155687A1, “METHODS OF TREATMENT USING AN A[…]” (Shire Pharmaceuticals Inc., priority 2017, published 2020)
